According to ChEMBL document CHEMBL1649285, “In vivo efficacy of 1- and 2-gram human simulated prolonged infusions of doripenem against Pseudomonas aeruginosa” (Antimicrob Agents Chemother, 2009):
In brackets after ≈: the same amount, converted by molar mass.

Experiments:
Assay type in all cases: functional
Pseudomonas aeruginosa [1] = test: Antimicrobial activity against Pseudomonas aeruginosa isolate 856 by broth microdilution method in presence of beta-lactamase inhibitor Tazobactam
Pseudomonas aeruginosa [2] = test: Antimicrobial activity against Pseudomonas aeruginosa isolate 1006 by broth microdilution method in presence of beta-lactamase inhibitor Tazobactam
Pseudomonas aeruginosa [3] = test: Antimicrobial activity against Pseudomonas aeruginosa isolate 896 by broth microdilution method in presence of beta-lactamase inhibitor Tazobactam
Pseudomonas aeruginosa [4] = test: Antimicrobial activity against Pseudomonas aeruginosa isolate 821 by broth microdilution method in presence of beta-lactamase inhibitor Tazobactam
Pseudomonas aeruginosa [5] = test: Antimicrobial activity against Pseudomonas aeruginosa isolate 944 by broth microdilution method in presence of beta-lactamase inhibitor Tazobactam
Pseudomonas aeruginosa [6] = test: Antimicrobial activity against Pseudomonas aeruginosa isolate 971 by broth microdilution method in presence of beta-lactamase inhibitor Tazobactam
Pseudomonas aeruginosa [7] = test: Antimicrobial activity against Pseudomonas aeruginosa isolate 1095 by broth microdilution method in presence of beta-lactamase inhibitor Tazobactam
Pseudomonas aeruginosa [8] = test: Antimicrobial activity against Pseudomonas aeruginosa isolate 927 by broth microdilution method in presence of beta-lactamase inhibitor Tazobactam
Pseudomonas aeruginosa [9] = test: Antimicrobial activity against Pseudomonas aeruginosa isolate 878 by broth microdilution method in presence of beta-lactamase inhibitor Tazobactam
Pseudomonas aeruginosa [10] = test: Antimicrobial activity against Pseudomonas aeruginosa isolate 22 by broth microdilution method in presence of beta-lactamase inhibitor Tazobactam
Pseudomonas aeruginosa [11] = test: Antimicrobial activity against Pseudomonas aeruginosa isolate 913 by broth microdilution method in presence of beta-lactamase inhibitor Tazobactam
Pseudomonas aeruginosa [12] = test: Antimicrobial activity against Pseudomonas aeruginosa isolate 1036 by broth microdilution method in presence of beta-lactamase inhibitor Tazobactam
Pseudomonas aeruginosa [13] = test: Antimicrobial activity against Pseudomonas aeruginosa isolate 1080 by broth microdilution method in presence of beta-lactamase inhibitor Tazobactam
Pseudomonas aeruginosa [14] = test: Antimicrobial activity against Pseudomonas aeruginosa isolate 1060 by broth microdilution method in presence of beta-lactamase inhibitor Tazobactam
Pseudomonas aeruginosa [15] = test: Antimicrobial activity against Pseudomonas aeruginosa isolate 1093 by broth microdilution method in presence of beta-lactamase inhibitor Tazobactam
Pseudomonas aeruginosa [16] = test: Antimicrobial activity against Pseudomonas aeruginosa isolate 1050 by broth microdilution method in presence of beta-lactamase inhibitor Tazobactam
Pseudomonas aeruginosa [17] = test: Antimicrobial activity against Pseudomonas aeruginosa isolate 968 by broth microdilution method in presence of beta-lactamase inhibitor Tazobactam
Pseudomonas aeruginosa [18] = test: Antimicrobial activity against Pseudomonas aeruginosa isolate 988 by broth microdilution method in presence of beta-lactamase inhibitor Tazobactam
Pseudomonas aeruginosa [19] = test: Antimicrobial activity against Pseudomonas aeruginosa isolate 968 by broth microdilution method
Pseudomonas aeruginosa [20] = test: Antimicrobial activity against Pseudomonas aeruginosa isolate 878 by broth microdilution method
Pseudomonas aeruginosa [21] = test: Antimicrobial activity against Pseudomonas aeruginosa isolate 1050 by broth microdilution method
Pseudomonas aeruginosa [22] = test: Antimicrobial activity against Pseudomonas aeruginosa isolate 944 by broth microdilution method
Pseudomonas aeruginosa [23] = test: Antimicrobial activity against Pseudomonas aeruginosa isolate 1095 by broth microdilution method
Pseudomonas aeruginosa [24] = test: Antimicrobial activity against Pseudomonas aeruginosa isolate 1080 by broth microdilution method
Pseudomonas aeruginosa [25] = test: Antimicrobial activity against Pseudomonas aeruginosa isolate 896 by broth microdilution method
Pseudomonas aeruginosa [26] = test: Antimicrobial activity against Pseudomonas aeruginosa isolate 22 by broth microdilution method
Pseudomonas aeruginosa [27] = test: Antimicrobial activity against Pseudomonas aeruginosa isolate 913 by broth microdilution method
Pseudomonas aeruginosa [28] = test: Antimicrobial activity against Pseudomonas aeruginosa isolate 971 by broth microdilution method
Pseudomonas aeruginosa [29] = test: Antimicrobial activity against Pseudomonas aeruginosa isolate 1060 by broth microdilution method
Pseudomonas aeruginosa [30] = test: Antimicrobial activity against Pseudomonas aeruginosa isolate 927 by broth microdilution method
Pseudomonas aeruginosa [31] = test: Antimicrobial activity against Pseudomonas aeruginosa isolate 1006 by broth microdilution method
Pseudomonas aeruginosa [32] = test: Antimicrobial activity against Pseudomonas aeruginosa isolate 821 by broth microdilution method
Pseudomonas aeruginosa [33] = test: Antimicrobial activity against Pseudomonas aeruginosa isolate 856 by broth microdilution method
Pseudomonas aeruginosa [34] = test: Antimicrobial activity against Pseudomonas aeruginosa isolate 1036 by broth microdilution method
Pseudomonas aeruginosa [35] = test: Antimicrobial activity against Pseudomonas aeruginosa isolate 1093 by broth microdilution method
Pseudomonas aeruginosa [36] = test: Antimicrobial activity against Pseudomonas aeruginosa isolate 988 by broth microdilution method

For CCN1CCN(C(=O)N[C@@H](C(=O)N[C@@H]2C(=O)N3[C@@H]2SC(C)(C)[C@@H]3C(=O)O)c2ccccc2)C(=O)C1=O [PIPERACILLIN], the MIC (Pseudomonas aeruginosa [1]) was no less than 256 µg/mL, the MIC (Pseudomonas aeruginosa [2]) was 16 µg/mL and the MIC (Pseudomonas aeruginosa [3]) was no less than 256 µg/mL. It also gave an MIC (Pseudomonas aeruginosa [4]) of 64 µg/mL, an MIC (Pseudomonas aeruginosa [5]) of 8 µg/mL and an MIC (Pseudomonas aeruginosa [6]) of no less than 256 µg/mL. The MIC (Pseudomonas aeruginosa [7]) was 12 µg/mL, the MIC (Pseudomonas aeruginosa [8]) was 32 µg/mL and the MIC (Pseudomonas aeruginosa [9]) was no less than 256 µg/mL. It also gave an MIC (Pseudomonas aeruginosa [10]) of 32 µg/mL, an MIC (Pseudomonas aeruginosa [11]) of no less than 256 µg/mL and an MIC (Pseudomonas aeruginosa [12]) of 3 µg/mL. For the same molecule, the MIC (Pseudomonas aeruginosa [13]) was 16 µg/mL, the MIC (Pseudomonas aeruginosa [14]) was 4 µg/mL and the MIC (Pseudomonas aeruginosa [15]) was 6 µg/mL. It also gave an MIC (Pseudomonas aeruginosa [16]) of 8 µg/mL, an MIC (Pseudomonas aeruginosa [17]) of 16 µg/mL and an MIC (Pseudomonas aeruginosa [18]) of 64 µg/mL.

NC[C@H]1O[C@H](O[C@H]2[C@H](O)[C@@H](O[C@H]3O[C@H](CO)[C@@H](O)[C@H](N)[C@H]3O)[C@H](N)C[C@@H]2N)[C@H](N)C[C@@H]1O [TOBRAMYCIN] was tested, and the MIC (Pseudomonas aeruginosa [19]) was 96 µg/mL (≈ 205 µM), the MIC (Pseudomonas aeruginosa [20]) was 1.5 µg/mL (≈ 3.21 µM) and the MIC (Pseudomonas aeruginosa [21]) was 16 µg/mL (≈ 34.2 µM). The MIC (Pseudomonas aeruginosa [22]) was 96 µg/mL (≈ 205 µM), the MIC (Pseudomonas aeruginosa [23]) was 2 µg/mL (≈ 4.28 µM) and the MIC (Pseudomonas aeruginosa [24]) was 3 µg/mL (≈ 6.42 µM). The MIC (Pseudomonas aeruginosa [25]) was 24 µg/mL (≈ 51.3 µM), the MIC (Pseudomonas aeruginosa [26]) was 0.5 µg/mL (≈ 1.07 µM) and the MIC (Pseudomonas aeruginosa [27]) was 96 µg/mL (≈ 205 µM). For the same molecule, the MIC (Pseudomonas aeruginosa [28]) was 1.5 µg/mL (≈ 3.21 µM), the MIC (Pseudomonas aeruginosa [29]) was 0.75 µg/mL (≈ 1.6 µM) and the MIC (Pseudomonas aeruginosa [30]) was 3 µg/mL (≈ 6.42 µM). It also gave an MIC (Pseudomonas aeruginosa [31]) of 3 µg/mL (≈ 6.42 µM), an MIC (Pseudomonas aeruginosa [32]) of 3 µg/mL (≈ 6.42 µM) and an MIC (Pseudomonas aeruginosa [33]) of 32 µg/mL (≈ 68.4 µM). It also gave an MIC (Pseudomonas aeruginosa [34]) of 0.125 µg/mL (≈ 0.267 µM), an MIC (Pseudomonas aeruginosa [35]) of 2 µg/mL (≈ 4.28 µM) and an MIC (Pseudomonas aeruginosa [36]) of 64 µg/mL (≈ 137 µM).
